# Data from US10590140B2, “Tetrahydropyrimidodiazepine and dihydropyridodiazepine compounds for treating pain and pain related conditions” (ESTEVE PHARMACEUTICALS, S.A., priority 2016, dated 2020).
# Molecular target: human α2δ-1 subunit of Cav2.2 calcium channel (Homo sapiens (Human), UniProt P54289)
# Experiment: Binding assay to human α2δ-1 subunit of Cav2.2 calcium channel ([3H]-Gabapentin)
# Conditions: binding to α2δ-1, [3H]-Gabapentin; read-out: Ki (nM) α2δ-1
# Method in brief: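 [3H]-gabapentin binding, 60 min at 27° C; nonspecific binding defined with 10 μM pregabalin. Terminated by filtration on PEI-presoaked GF/C filters, ice-cold 50 mM Tris-HCl pH 7.4 washes, then scintillation counting.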
# Chain of human α2δ-1 subunit of Cav2.2 calcium channel (P54289 25-1103): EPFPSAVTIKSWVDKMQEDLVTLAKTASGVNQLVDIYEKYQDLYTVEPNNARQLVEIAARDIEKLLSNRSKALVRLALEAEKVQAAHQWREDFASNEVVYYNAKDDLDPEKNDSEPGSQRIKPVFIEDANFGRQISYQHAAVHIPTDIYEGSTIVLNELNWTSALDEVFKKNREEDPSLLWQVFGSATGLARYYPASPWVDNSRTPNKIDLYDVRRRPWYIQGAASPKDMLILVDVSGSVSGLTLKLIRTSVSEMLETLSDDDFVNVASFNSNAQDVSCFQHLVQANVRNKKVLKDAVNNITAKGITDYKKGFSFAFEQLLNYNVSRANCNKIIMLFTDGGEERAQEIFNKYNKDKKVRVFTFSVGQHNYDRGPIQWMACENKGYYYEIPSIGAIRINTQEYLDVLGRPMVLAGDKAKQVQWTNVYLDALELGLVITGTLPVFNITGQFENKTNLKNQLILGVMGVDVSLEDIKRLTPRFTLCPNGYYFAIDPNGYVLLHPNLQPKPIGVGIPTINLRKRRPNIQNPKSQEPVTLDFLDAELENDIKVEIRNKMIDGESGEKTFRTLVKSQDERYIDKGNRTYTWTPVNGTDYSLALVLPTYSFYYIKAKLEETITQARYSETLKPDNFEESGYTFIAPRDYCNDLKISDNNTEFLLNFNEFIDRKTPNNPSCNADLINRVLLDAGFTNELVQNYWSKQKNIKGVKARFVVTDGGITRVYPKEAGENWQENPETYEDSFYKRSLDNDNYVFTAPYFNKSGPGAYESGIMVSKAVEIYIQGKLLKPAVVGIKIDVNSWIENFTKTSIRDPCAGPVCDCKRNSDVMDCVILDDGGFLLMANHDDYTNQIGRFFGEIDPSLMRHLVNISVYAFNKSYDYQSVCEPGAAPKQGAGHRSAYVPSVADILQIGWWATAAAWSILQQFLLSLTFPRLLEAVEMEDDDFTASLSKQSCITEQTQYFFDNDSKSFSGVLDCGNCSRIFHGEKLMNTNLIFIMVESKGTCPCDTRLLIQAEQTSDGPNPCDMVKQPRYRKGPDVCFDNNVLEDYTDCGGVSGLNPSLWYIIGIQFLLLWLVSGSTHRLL
row,Compound,Ki [nM]
1,"CCNc1ncc2c(n1)N(C)CCN(c1cccc(-n3cc(CCN(C)C)nn3)c1)C2=O [Example 248, 6-(3-(4-(2-(dimethylamino)ethyl)-1H-1,2,3-triazol-1-yl)phenyl)-2-(ethylamino)-9-methyl-6,7,8,9-tetrahydro-5H-pyrimido[4,5-e][1,4]diazepin-5-one]",100 to 500
2,"CCNc1ncc2c(n1)N(C)CCN(c1cccc(-n3cc(CN)nn3)c1)C2=O [Example 181, 6-(3-(4-(aminomethyl)-1H-1,2,3-triazol-1-yl)phenyl)-2-(ethylamino)-9-methyl-6,7,8,9-tetrahydro-5H-pyrimido[4,5-e][1,4]diazepin-5-one]",100 to 500
3,"CN(CCC(Oc1cccc(N2CCN(C)c3nc(N(C)C)ncc3C2=O)c1)c1cccs1)C(=O)OCC[Si](C)(C)C (centres unmarked) [Example 133, 2-(trimethylsilyl)ethyl (3-(3-(2-(dimethylamino)-9-methyl-5-oxo-5,7,8,9-tetrahydro-6H-pyrimido[4,5-e][1,4]diazepin-6-yl)phenoxy)-3-(thiophen-2-yl)propyl)(methyl) carbamate]",> 3000
4,"CCNc1ncc2c(n1)N(C)CCN(c1cccc(C#N)c1)C2=O [Example 110, 3-(2-(ethylamino)-9-methyl-5-oxo-5,7,8,9-tetrahydro-6H-pyrimido[4,5-e][1,4]diazepin-6-yl)benzonitrile]",> 3000
5,"CCNc1ncc2c(n1)N(C)CCN(c1cccc(-n3cc(CNC)cn3)c1)C2=O [Example 185, 2-(ethylamino)-9-methyl-6-(3-(4-((methylamino)methyl)-1H-pyrazol-1-yl)phenyl)-6,7,8,9-tetrahydro-5H-pyrimido[4,5-e][1,4]diazepin-5-one]",100 to 500
6,"CNCCC(Oc1ccc(CN2CCN(C)c3nc(OC)ncc3C2=O)cc1)c1cc(C)cs1 (centres unmarked) [Example 396, 2-methoxy-9-methyl-6-(4-(3-(methylamino)-1-(4-methylthiophen-2-yl)propoxy)benzyl)-6,7,8,9-tetrahydro-5H-pyrimido[4,5-e][1,4]diazepin-5-one]",100 to 500
7,"CNCC[C@H](Oc1ccc(CN2CCN(C)c3nc(OC)ncc3C2=O)cc1C)c1cccs1 [Example 393, (S)-2-methoxy-9-methyl-6-(3-methyl-4-(3-(methylamino)-1-(thiophen-2-yl)propoxy)benzyl)-6,7,8,9-tetrahydro-5H-pyrimido[4,5-e][1,4]diazepin-5-one]",100 to 500
8,"Cc1ncc2c(n1)N(C)CCN(c1cccc(OC(CCN(C)C(=O)OCC[Si](C)(C)C)c3cccs3)c1)C2=O (centres unmarked) [Example 144, 2-(trimethylsilyl)ethyl (3-(3-(2,9-dimethyl-5-oxo-5,7,8,9-tetrahydro-6H-pyrimido[4,5-e][1,4]diazepin-6-yl)phenoxy)-3-(thiophen-2-yl)propyl)(methyl) carbamate]",> 3000
9,"CNCCC(Oc1cccc(CN2CCN(C)c3ncncc3C2=O)c1)c1ccccc1 (centres unmarked) [Example 429, 9-methyl-6-(3-(3-(methylamino)-1-phenylpropoxy)benzyl)-6,7,8,9-tetrahydro-5H-pyrimido[4,5-e][1,4]diazepin-5-one]",> 3000
10,"CCNc1ncc2c(n1)N(C)CCN(c1cccc(-n3cc(CNC)nn3)c1)C2=O [Example 180, 2-(ethylamino)-9-methyl-6-(3-(4-((methylamino)methyl)-1H-1,2,3-triazol-1-yl)phenyl)-6,7,8,9-tetrahydro-5H-pyrimido[4,5-e][1,4]diazepin-5-one]",100 to 500
11,"CSc1ncc2c(n1)N(C)CCN(c1cccc(O[Si](C)(C)C(C)(C)C)c1)C2=O [Example 34, 6-(3-((tert-butyldimethyl-silyl)oxy)phenyl)-9-methyl-2-(methylthio)-6,7,8,9-tetrahydro-5H-pyrimido[4,5-e][1,4]diazepin-5-one]",> 3000
12,"CSc1ncc2c(n1)N(C)CCN(c1cccc(CCO)c1)C2=O [Example 36, 6-(3-(2-hydroxyethyl)phenyl)-9-methyl-2-(methylthio)-6,7,8,9-tetrahydro-5H-pyrimido[4,5-e][1,4]diazepin-5-one]",> 3000
13,"CNCC(OCc1ccccc1CN1CCN(C)c2nc(SC)ncc2C1=O)c1ccccc1 (centres unmarked) [Example 373, 9-methyl-6-(2-((2-(methylamino)-1-phenylethoxy)methyl)benzyl)-2-(methylthio)-6,7,8,9-tetrahydro-5H-pyrimido[4,5-e][1,4]diazepin-5-one]",> 3000

# The remaining lines, values ahead:
row,Ki [nM],Compound
1,100 to 500,"CCNc1ncc2c(n1)N(C)CCN(c1cccc(CCN(C)CCc3ccccc3)c1)C2=O [Example 270, 2-(ethylamino)-9-methyl-6-(3-(2-(methyl(phenethyl)amino)ethyl)phenyl)-6,7,8,9-tetrahydro-5H-pyrimido[4,5-e][1,4]diazepin-5-one]"
2,> 3000,"CSc1ncc2c(n1)N(C)CCN(c1cccc(-n3cc(CN(C)C(=O)OC(C)(C)C)cn3)c1)C2=O [Example 45, tert-butyl methyl((1-(3-(9-methyl-2-(methylthio)-5-oxo-5,7,8,9-tetrahydro-6H-pyrimido[4,5-e][1,4]diazepin-6-yl)phenyl)-1H-pyrazol-4-yl)methyl) carbamate]"
3,> 3000,"CCNc1ncc2c(n1)N(C)CCN(c1cccc(COCC(c3ccccc3)N(C)C(=O)OC(C)(C)C)c1)C2=O (centres unmarked) [Example 86, tert-butyl (2-((3-(2-(ethylamino)-9-methyl-5-oxo-5,7,8,9-tetrahydro-6H-pyrimido[4,5-e][1,4]diazepin-6-yl)benzyl)oxy)-1-phenylethyl)(methyl) carbamate]"
4,100 to 500,"CCNc1ncc2c(n1)N(C)CCN(c1cccc(C(=O)OC)c1)C2=O [Example 309, methyl 3-(2-(ethylamino)-9-methyl-5-oxo-5,7,8,9-tetrahydro-6H-pyrimido[4,5-e][1,4]diazepin-6-yl)benzoate]"
5,> 3000,"CSc1ncc2c(n1)N(C)CCN(c1cccc(-n3cc(CCN(C)C(=O)OC(C)(C)C)nn3)c1)C2=O [Example 43, tert-butyl methyl(2-(1-(3-(9-methyl-2-(methylthio)-5-oxo-5,7,8,9-tetrahydro-6H-pyrimido[4,5-e][1,4]diazepin-6-yl)phenyl)-1H-1,2,3-triazol-4-yl)ethyl) carbamate]"
6,> 3000,"CSc1ncc2c(n1)N(C)CCN(c1ccccc1OC(CCN(C)C(=O)OC(C)(C)C)c1ccccc1)C2=O (centres unmarked) [Example 48, tert-butyl methyl(3-(2-(9-methyl-2-(methylthio)-5-oxo-5,7,8,9-tetrahydro-6H-pyrimido [4,5-e][1,4]diazepin-6-yl)phenoxy)-3-phenylpropyl) carbamate]"
7,> 3000,"Cc1ncc2c(n1)N(C)CCN(c1cccc(CO[C@H](CCN(C)C(=O)OC(C)(C)C)c3ccccc3)c1)C2=O [Example 142, tert-Butyl (R)-(3-((3-(2,9-dimethyl-5-oxo-5,7,8,9-tetrahydro-6H-pyrimido[4,5-e][1,4]diazepin-6-yl)benzyl)oxy)-3-phenylpropyl)(methyl)carbamate]"
8,500 to 3000,"CCNc1ncc2c(n1)N(C)CCN(c1cccc(-n3cc(CN(C)CCOCCO)nn3)c1)C2=O [Example 273, 2-(ethylamino)-6-(3-(4-(((2-(2-hydroxyethoxy)ethyl) (methyl)amino)methyl)-1H-1,2,3-triazol-1-yl)phenyl)-9-methyl-6,7,8,9-tetrahydro-5H-pyrimido[4,5-e][1,4]diazepin-5-one]"
9,> 3000,"CCNc1ncc2c(n1)N(C)CCN(c1cccc(C(=O)N3CCC(c4ccccc4)(N(C)C)CC3)c1)C2=O [Example 314, 6-(3-(4-(dimethylamino)-4-phenylpiperidine-1-carbonyl)phenyl)-2-(ethylamino)-9-methyl-6,7,8,9-tetrahydro-5H-pyrimido[4,5-e][1,4]diazepin-5-one]"
10,> 3000,"CSc1ncc2c(n1)N(C)CCN(c1cccc(COCC(c3ccccc3)N(C)C(=O)OC(C)(C)C)c1)C2=O (centres unmarked) [Example 18, tert-butyl methyl(2-((3-(9-methyl-2-(methylthio)-5-oxo-5,7,8,9-tetrahydro-6H-pyrimido[4,5-e][1,4]diazepin-6-yl)benzyl)oxy)-1-phenylethyl) carbamate]"
11,> 3000,"CSc1ncc2c(n1)N(C)CCN(c1cccc(CO[C@@H](CCN(C)C(=O)OC(C)(C)C)c3ccccc3)c1)C2=O [Example 11, tert-butyl (S)-methyl(3-((3-(9-methyl-2-(methylthio)-5-oxo-5,7,8,9-tetrahydro-6H-pyrimido[4,5-e][1,4]diazepin-6-yl)benzyl)oxy)-3-phenylpropyl) carbamate]"
12,> 3000,"CSc1ncc2c(n1)N(C)CCN(c1cccc(COC(CCN(C)C(=O)OC(C)(C)C)C(C)C)c1)C2=O (centres unmarked) [Example 49, tert-butyl methyl (4-methyl-3-((3-(9-methyl-2-(methylthio)-5-oxo-5,7,8,9-tetrahydro-6H-pyrimido[4,5-e][1,4]diazepin-6-yl)benzyl)oxy)pentyl) carbamate]"
13,> 3000,"CCNc1ncc2c(n1)N(C)CCN(c1cccc(COC(CCN(C)C(=O)OC(C)(C)C)c3cccs3)c1)C2=O (centres unmarked) [Example 83, tert-butyl (3-((3-(2-(ethylamino)-9-methyl-5-oxo-5,7,8,9-tetrahydro-6H-pyrimido[4,5-e][1,4]diazepin-6-yl)benzyl)oxy)-3-(thiophen-2-yl)propyl)(methyl) carbamate]"
14,> 3000,"CSc1ncc2c(n1)N(C)CCN(Cc1ccc(OC(CN(C)C(=O)OC(C)(C)C)c3ccccc3)cc1)C2=O (centres unmarked) [Example 63, tert-butyl methyl(2-(4-((9-methyl-2-(methylthio)-5-oxo-5,7,8,9-tetrahydro-6H-pyrimido[4,5-e][1,4]diazepin-6-yl)methyl)phenoxy)-2-phenylethyl)carbamate]"
15,> 3000,"CN(CC[C@@H](OCc1cccc(N2CCN(C)c3nc(O)ncc3C2=O)c1)c1ccccc1)C(=O)OC(C)(C)C [Example 140, tert-Butyl (R)-(3-((3-(2-hydroxy-9-methyl-5-oxo-5,7,8,9-tetrahydro-6H-pyrimido[4,5-e][1,4]diazepin-6-yl)benzyl)oxy)-3-phenylpropyl)(methyl)carbamate]"
16,500 to 3000,"CCNc1ncc2c(n1)N(C)CCN(c1cccc(OC(C)CN(C)Cc3ccccc3)c1)C2=O (centres unmarked) [Example 262, 6-(3-((1-(benzyl(methyl)amino)propan-2-yl)oxy)phenyl)-2-(ethylamino)-9-methyl-6,7,8,9-tetrahydro-5H-pyrimido[4,5-e][1,4]diazepin-5-one]"
